Test results reported in US11739098B2 (BRISTOL-MYERS SQUIBB COMPANY, priority 2017, dated 2023).

Experiments:
Format in all cases: cell-based
human TLR8 = target: T1, human TLR8 (Homo sapiens, UniProt Q9NR97); assay: TLR8 inhibition reporter assay (HEK-Blue cells, SEAP reporter, R848 stimulation); details: HEK-Blue cells overexpressing human TLR8, SEAP reporter, R848 15.9 μM
T1 construct: host or cells: HEK-Blue cells (HEK293-derived reporter line)
T1 sequence (Q9NR97 27-1041): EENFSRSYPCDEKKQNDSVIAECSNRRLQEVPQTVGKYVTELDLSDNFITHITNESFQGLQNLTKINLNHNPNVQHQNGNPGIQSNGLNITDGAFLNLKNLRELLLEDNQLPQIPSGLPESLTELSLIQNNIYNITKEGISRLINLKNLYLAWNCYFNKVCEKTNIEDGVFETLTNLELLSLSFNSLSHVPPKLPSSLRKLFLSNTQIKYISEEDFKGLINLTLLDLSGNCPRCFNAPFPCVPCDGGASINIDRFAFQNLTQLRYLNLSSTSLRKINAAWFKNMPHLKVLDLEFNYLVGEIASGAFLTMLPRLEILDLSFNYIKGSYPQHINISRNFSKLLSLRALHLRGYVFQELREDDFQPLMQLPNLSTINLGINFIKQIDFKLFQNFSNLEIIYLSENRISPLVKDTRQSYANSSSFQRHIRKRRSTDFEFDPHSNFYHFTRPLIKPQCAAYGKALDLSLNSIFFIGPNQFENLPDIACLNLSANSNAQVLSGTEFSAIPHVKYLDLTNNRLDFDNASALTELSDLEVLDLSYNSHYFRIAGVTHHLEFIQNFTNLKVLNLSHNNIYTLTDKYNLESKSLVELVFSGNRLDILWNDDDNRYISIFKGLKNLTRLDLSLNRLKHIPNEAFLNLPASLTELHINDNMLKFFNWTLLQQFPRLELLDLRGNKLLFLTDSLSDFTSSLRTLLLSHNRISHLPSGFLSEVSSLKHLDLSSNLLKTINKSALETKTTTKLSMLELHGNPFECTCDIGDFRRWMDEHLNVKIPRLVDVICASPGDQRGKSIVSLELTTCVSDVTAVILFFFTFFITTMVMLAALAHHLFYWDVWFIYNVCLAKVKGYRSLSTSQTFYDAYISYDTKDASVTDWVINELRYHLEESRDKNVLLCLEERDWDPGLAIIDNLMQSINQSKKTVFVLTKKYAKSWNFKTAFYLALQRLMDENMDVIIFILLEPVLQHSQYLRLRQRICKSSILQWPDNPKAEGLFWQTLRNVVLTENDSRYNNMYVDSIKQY
Procedure, shortened: (§1)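 HEK-Blue cells overexpressing human TLR7, TLR8 or TLR9 (NF-κB/AP-1-driven SEAP) pre-treated 30 min at room temperature with compound (0.05 nM–50 μM), then stimulated with gardiquimod 7.5 μM (TLR7), R848 15.9 μM (TLR8) or ODN2006 5 nM (TLR9). SEAP read colorimetrically after 22 h at 37 °C; % inhibition calculated.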

human TLR7 = target: T2, human TLR7 (Homo sapiens, UniProt Q9NYK1); assay: TLR7 inhibition reporter assay (HEK-Blue cells, SEAP reporter, gardiquimod stimulation); details: HEK-Blue cells overexpressing human TLR7, SEAP reporter, gardiquimod 7.5 μM
T2 construct: host or cells: HEK-Blue cells (HEK293-derived reporter line)
T2 sequence (Q9NYK1 27-1049): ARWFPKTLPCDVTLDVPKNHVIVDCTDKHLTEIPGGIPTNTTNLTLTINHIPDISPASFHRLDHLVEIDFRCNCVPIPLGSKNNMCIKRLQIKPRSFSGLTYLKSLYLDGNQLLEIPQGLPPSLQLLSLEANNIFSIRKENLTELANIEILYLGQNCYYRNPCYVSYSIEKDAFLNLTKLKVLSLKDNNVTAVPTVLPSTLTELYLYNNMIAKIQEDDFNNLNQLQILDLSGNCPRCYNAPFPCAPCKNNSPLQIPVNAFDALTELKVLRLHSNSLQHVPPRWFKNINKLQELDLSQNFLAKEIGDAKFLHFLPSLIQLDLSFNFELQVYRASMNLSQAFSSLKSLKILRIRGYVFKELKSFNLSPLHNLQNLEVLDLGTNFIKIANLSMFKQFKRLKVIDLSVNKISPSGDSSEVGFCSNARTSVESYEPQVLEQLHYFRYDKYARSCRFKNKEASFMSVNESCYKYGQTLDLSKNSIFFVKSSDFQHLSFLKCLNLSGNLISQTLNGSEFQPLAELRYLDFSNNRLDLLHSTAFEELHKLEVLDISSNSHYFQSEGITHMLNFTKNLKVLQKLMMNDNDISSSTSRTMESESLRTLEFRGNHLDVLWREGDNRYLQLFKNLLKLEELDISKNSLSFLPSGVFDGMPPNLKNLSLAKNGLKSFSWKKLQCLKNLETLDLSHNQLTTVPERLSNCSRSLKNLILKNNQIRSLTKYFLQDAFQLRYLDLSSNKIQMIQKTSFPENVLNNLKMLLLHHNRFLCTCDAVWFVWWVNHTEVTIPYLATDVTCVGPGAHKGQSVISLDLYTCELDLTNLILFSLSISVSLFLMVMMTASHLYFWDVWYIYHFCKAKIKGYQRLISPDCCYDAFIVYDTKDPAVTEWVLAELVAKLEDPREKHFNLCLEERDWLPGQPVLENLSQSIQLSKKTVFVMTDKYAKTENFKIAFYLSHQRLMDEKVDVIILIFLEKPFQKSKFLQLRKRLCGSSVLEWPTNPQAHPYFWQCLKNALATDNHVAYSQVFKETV
Procedure, shortened: as §1

human TLR9 = target: T3, human TLR9 (Homo sapiens, UniProt Q9NR96); assay: TLR9 inhibition reporter assay (HEK-Blue cells, SEAP reporter, ODN2006 stimulation); details: HEK-Blue cells overexpressing human TLR9, SEAP reporter, ODN2006 5 nM
T3 construct: host or cells: HEK-Blue cells (HEK293-derived reporter line)
T3 sequence (Q9NR96 26-1032): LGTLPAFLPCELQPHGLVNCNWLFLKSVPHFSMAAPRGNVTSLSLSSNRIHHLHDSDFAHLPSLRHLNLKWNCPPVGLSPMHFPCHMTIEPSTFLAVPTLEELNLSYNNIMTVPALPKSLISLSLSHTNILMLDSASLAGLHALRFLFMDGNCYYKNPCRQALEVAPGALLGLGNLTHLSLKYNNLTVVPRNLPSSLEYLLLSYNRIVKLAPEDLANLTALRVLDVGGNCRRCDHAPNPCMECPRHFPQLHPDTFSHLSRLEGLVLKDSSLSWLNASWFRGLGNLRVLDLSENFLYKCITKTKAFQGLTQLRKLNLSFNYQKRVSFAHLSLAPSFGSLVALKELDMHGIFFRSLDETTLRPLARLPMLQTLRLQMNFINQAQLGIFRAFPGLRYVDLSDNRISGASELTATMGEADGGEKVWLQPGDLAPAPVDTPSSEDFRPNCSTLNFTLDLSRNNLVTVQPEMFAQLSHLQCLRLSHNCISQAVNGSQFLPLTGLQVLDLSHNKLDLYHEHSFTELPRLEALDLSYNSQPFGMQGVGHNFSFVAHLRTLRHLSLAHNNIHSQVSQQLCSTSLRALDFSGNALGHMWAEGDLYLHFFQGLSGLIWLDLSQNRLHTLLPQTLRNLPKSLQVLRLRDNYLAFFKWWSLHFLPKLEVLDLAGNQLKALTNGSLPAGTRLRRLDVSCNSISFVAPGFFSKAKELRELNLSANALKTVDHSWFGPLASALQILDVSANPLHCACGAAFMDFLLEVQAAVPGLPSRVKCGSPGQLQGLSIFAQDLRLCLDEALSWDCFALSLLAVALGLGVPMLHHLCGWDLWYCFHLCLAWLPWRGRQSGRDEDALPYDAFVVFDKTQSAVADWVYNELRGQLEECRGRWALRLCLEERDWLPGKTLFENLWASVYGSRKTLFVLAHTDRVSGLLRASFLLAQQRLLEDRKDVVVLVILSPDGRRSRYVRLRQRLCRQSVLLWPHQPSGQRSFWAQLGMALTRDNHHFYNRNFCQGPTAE
Procedure, shortened: as §1

Row | Compound | IC50 (human TLR8) [nM] | IC50 (human TLR7) [nM] | IC50 (human TLR9) [nM]
1 | CCc1c(-c2ccc3nncn3n2)[nH]c2ccc(C3CCNCC3)cc12 [Example 184, 6-(3-ethyl-5-(piperidin-4-yl)-1H-indol-2-yl)-[1,2,4] triazolo[4,3-b]pyridazine] | 100 to 1000 | 100 to 1000 | 100 to 1000
2 | CCc1c(-c2c(C)cnc3[nH]ccc23)[nH]c2ccc(C3CCNCC3)cc12 [Example 246, 4-(3-ethyl-5-(piperidin-4-yl)-1H-indol-2-yl)-5-methyl-1H-pyrrolo[2,3-b]pyridine] | < 100 | < 100 | 100 to 1000
3 | CC(C)c1c(-c2ccnc3[nH]ncc23)[nH]c2ccc(C3CCN(CCN)CC3)cc12 [Example 655, 2-(4-(3-isopropyl-2-(1H-pyrazolo[3,4-b]pyridin-4-yl)-1H-indol-5-yl)piperidin-1-yl)ethan-1-amine] | < 100 | < 100 | 100 to 1000
4 | CNC(=O)CN1CCC(c2ccc3[nH]c(-c4nn5ncnc5c(OC)c4C)c(C(C)C)c3c2)CC1 [Example 281, 2-(4-(3-isopropyl-2-(8-methoxy-7-methyl-[1,2,4]triazolo[1,5-b]pyridazin-6-yl)-1H-indol-5-yl)piperidin-1-yl)-N-methylacetamide] | < 100 | < 100 | 1000 to 50000
5 | Cc1c(-c2[nH]c3ccc(C4CCNCC4)cc3c2C(C)C)ccc2c1cnn2C [Example 94, 5-(3-isopropyl-5-(piperidin-4-yl)-1H-indol-2-yl)-1,4-dimethyl-1H-indazole] | < 100 | < 100 | 1000 to 50000
6 | CNC(=O)CN1CCC(c2ccc3[nH]c(-c4nn5ncnc5c(C)c4C)c(C(C)C)c3c2)CC1 [Example 279, 2-(4-(2-(7,8-dimethyl-[1,2,4]triazolo[1,5-b]pyridazin-6-yl)-3-isopropyl-1H-indol-5-yl)piperidin-1-yl)-N-methylacetamide] | < 100 | < 100 | 1000 to 50000
7 | CC(C)c1c(-c2ccn3cnnc3c2)[nH]c2ccc(C3CCN(Cc4ncn(C)n4)CC3)cc12 [Example 880, 7-(3-isopropyl-5-(1-((1-methyl-1H-1,2,4-triazol-3-yl)methyl)piperidin-4-yl)-1H-indol-2-yl)-[1,2,4]triazolo[4,3-a]pyridine] | 100 to 1000 | 100 to 1000 | 1000 to 50000
8 | CC(C)c1c(-c2nc3cnccn3n2)[nH]c2ccc(C3CCNCC3)cc12 [Example 195, 2-(3-isopropyl-5-(piperidin-4-yl)-1H-indol-2-yl)-[1,2,4]triazolo[1,5-a]pyrazine] | < 100 | 1000 to 50000 | 1000 to 50000
9 | CCc1c(-c2ccn3cnnc3c2)[nH]c2ccc(C3CCNCC3)cc12 [Example 204, 7-(3-ethyl-5-(piperidin-4-yl)-1H-indol-2-yl)-[1,2,4]triazolo[4,3-a]pyridine] | 100 to 1000 | 100 to 1000 | 100 to 1000
10 | CC(C)c1c(-c2ccnc3[nH]ncc23)[nH]c2ccc(C3CCN(C(=O)CCN4CCCCC4)CC3)cc12 [Example 641, 1-(4-(3-isopropyl-2-(1H-pyrazolo[3,4-b]pyridin-4-yl)-1H-indol-5-yl)piperidin-1-yl)-3-(piperidin-1-yl)propan-1-one] | < 100 | < 100 | 1000 to 50000
11 | CC(C)c1c(-c2ccnc3cnn(C)c23)[nH]c2ccc(C3CCNCC3)cc12 [Example 42, 7-(3-isopropyl-5-(piperidin-4-yl)-1H-indol-2-yl)-1-methyl-1H-pyrazolo[4,3-b]pyridine] | 100 to 1000 | 1000 to 50000 | 1000 to 50000
12 | CC(C)c1c(-c2ccc(C#N)c3ncccc23)[nH]c2ccc(C3CCN(C4COC4)CC3)cc12 [Example 714, 5-(3-isopropyl-5-(1-(oxetan-3-yl)piperidin-4-yl)-1H-indol-2-yl)quinoline-8-carbonitrile] | < 100 | < 100 | > 50000
13 | Cc1c(-c2ccnc3[nH]ncc23)[nH]c2ccc(C3CCN(C4CCN(C(C)C)CC4)CC3)cc12 [Example 833, 4-(5-(1′-isopropyl-[1,4′-bipiperidin]-4-yl)-3-methyl-1H-indol-2-yl)-1H-pyrazolo[3,4-b]pyridine] | < 100 | < 100 | < 100
14 | CNC(=O)CN1CCC(c2ccc3[nH]c(-c4cc(CO)c5nccn5c4)c(C(C)C)c3c2)CC1 [Example 341, 2-(4-(2-(8-(hydroxymethyl)-6-imidazo[1,2-a]pyridinyl-6-yl)-3-isopropyl-1H-indol-5-yl)piperidin-1-yl)-N-methylacetamide] | < 100 | < 100 | 100 to 1000
15 | Cc1cc2nccn2cc1-c1[nH]c2ccc(C3CCN(C4CCN(C(C)C)CC4)CC3)cc2c1C(C)C [Example 841, 6-(3-isopropyl-5-(1′-isopropyl-[1,4′-bipiperidin]-4-yl)-1H-indol-2-yl)-7-methylimidazo[1,2-a]pyridine] | < 100 | < 100 | < 100
